Molecular target: T1, untagged form of the CRD (human dectin-2) (Homo sapiens, UniProt Q6EIG7)
T1 construct: gene CLEC6A; extended C-type carbohydrate-recognition domain starting at Leu-64, preceded by Met-Ala; untagged; one monomer in the asymmetric unit
T1 sequence (Q6EIG7 64-209): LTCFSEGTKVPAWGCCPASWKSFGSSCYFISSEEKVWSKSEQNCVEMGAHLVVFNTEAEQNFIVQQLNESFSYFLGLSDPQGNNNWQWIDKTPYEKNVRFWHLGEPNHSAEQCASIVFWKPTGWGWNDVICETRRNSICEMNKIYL
Assay: X-ray crystallography, […] Å
Type: binding
Conditions: pH 8.0, Ca2+; primary Ca2+ site plus adjacent secondary site; D1 and D2 branches at 50% occupancy each

Structure (SMILES): CC(=O)N[C@H]1[C@H](O[C@H]2[C@H](O)[C@@H](NC(C)=O)C(O)O[C@@H]2CO)O[C@H](CO)[C@@H](O[C@@H]2O[C@H](CO[C@H]3O[C@H](CO[C@H]4O[C@H](CO)[C@@H](O)[C@H](O)[C@@H]4O[C@H]4O[C@H](CO)[C@@H](O)[C@H](O)[C@@H]4O)[C@@H](O)[C@H](O[C@H]4O[C@H](CO)[C@@H](O)[C@H](O)[C@@H]4O[C@H]4O[C@H](CO)[C@@H](O)[C@H](O)[C@@H]4O)[C@@H]3O)[C@@H](O)[C@H](O[C@H]3O[C@H](CO)[C@@H](O)[C@H](O)[C@@H]3O[C@H]3O[C@H](CO)[C@@H](O)[C@H](O)[C@@H]3O[C@H]3O[C@H](CO)[C@@H](O)[C@H](O)[C@@H]3O)[C@@H]2O)[C@@H]1O (stereo partly shown) [Man9GlcNAc2]
- X-ray crystallography, 2.4 Å: crystals obtained with the untagged form of the CRD in combination with Man9GlcNAc2 oligosaccharide

Reference: PMC5555199, “Mechanism of pathogen recognition by human dectin-2” (The Journal of Biological Chemistry, 2017)
